Data: patent publication US9962453B2, “Immunogenic compound” (ALTIMMUNE UK LIMITED, priority 2013, dated 2018)
Marks after values point to notes of the source that are not given here.

Experiment: Particle size measurement (dynamic light scattering) and visual solubility in aqueous solutions; on particle size, HIST/NaCl: unit not given here; on particle size, HIST: unit not given here; on particle size, NaCl: unit not given here; on particle size, PBS: unit not given here; on particle size, Water: unit not given here
Details: for particle size, HIST: 2 mg net mass/ml in 28 mM L-Histidine buffer, pH 5.9 to 6.4; for particle size, HIST/NaCl: 2 mg net mass/ml in 0.9% sodium chloride in 28 mM L-histidine, pH 5.9 to 6.3; for particle size, NaCl: 2 mg net mass/ml in 0.9% sodium chloride, pH 3.3 to 4.2; for particle size, PBS: 2 mg net mass/ml in 1× PBS, pH 6.9 to 7.5; for particle size, Water: 2 mg net mass/ml in water, pH 3.1 to 4.1, 20 °C; for behaviour in the particle size assay: water, HIST, NaCl versus HIST/NaCl, PBS

Row | Substance | particle size, HIST | particle size, HIST/NaCl | particle size, NaCl | particle size, PBS | particle size, Water | behaviour in the particle size assay
1 | Ac-LRLLAAHLALHAALLRLL-NH2 [Peptide 10, Ac-LRLLAAHLALHAALLRLL-NH2] | INS. | INS. | INS. | INS. | INS. | 
2 | Ac-LRLLHAALALAAHLLRLL-NH2 [Peptide 8, Ac-LRLLHAALALAAHLLRLL-NH2] | INS. | INS. | INS. | INS. | INS. | 
3 | Ac-LRLLHALLALLAHLLRLL-NH2 [Peptide 6, Ac-LRLLHALLALLAHLLRLL-NH2] | INS. | INS. | INS. | INS. | INS. | 
4 | Ac-LRLLHAPLALPAHLLRLL-NH2 [Peptide 7, Ac-LRLLHAPLALPAHLLRLL-NH2] | 0* | INS. | 0* | INS. | 0* | 
5 | Ac-LRLLPAHLALHAPLLRLL-NH2 [Peptide 9, Ac-LRLLPAHLALHAPLLRLL-NH2] | 0* | INS. | 6.02* | INS. | 0* | 
6 | Ac-RRLKKAKLKLKAKKLRRL-NH2 [Peptide 19, Ac-RRLKKAKLKLKAKKLRRL-NH2] | 0* | 0* | 0* | 0* | 0* | 
7 | Ac-RRLLAAHLALHAALLRRL-NH2 [Peptide 15, Ac-RRLLAAHLALHAALLRRL-NH2] | 0* | 2.66* | 0* | 360.7* | 0* | 
8 | Ac-RRLLAAPLALPAALLRRL-NH2 [Peptide 5, Ac-RRLLAAPLALPAALLRRL-NH2] | 0* | 3.3* | 1.6* | 1.35* | 0* | 
9 | Ac-RRLLHAALALAAHLLRRL-NH2 [Peptide 13, Ac-RRLLHAALALAAHLLRRL-NH2] | 0* | 2.7* | 2.2* | 2.3* | 0* | 
10 | Ac-RRLLHAHLALHAHLLRRL-NH2 [Peptide 16, Ac-RRLLHAHLALHAHLLRRL-NH2] | 0* | 1.83* | 0* | 1.4* | 0* | apparent solubility in water, 28 mM L-Histidine and 0.9% NaCl with the formation of larger particles or insoluble aggregates in 28 mM L-Histidine/NaCl or PBS
11 | Ac-RRLLHAKLALKAHLLRRL-NH2 [Peptide 17, Ac-RRLLHAKLALKAHLLRRL-NH2] | 0* | 0* | 0* | 0* | 0* | 
12 | Ac-RRLLHALLALLAHLLRRL-NH2 [Peptide 11, Ac-RRLLHALLALLAHLLRRL-NH2] | 0* | INS. | 0* | INS. | 0* | 
13 | Ac-RRLLHAPLALPAHLLRRL-NH2 [Peptide 12, Ac-RRLLHAPLALPAHLLRRL-NH2] | 0* | 0* | 0* | 1.35* | 0* | 
14 | Ac-RRLLKAKLALKAKLLRRL-NH2 [Peptide 18, Ac-RRLLKAKLALKAKLLRRL-NH2] | 0* | 0* | 0* | 0* | 0* | 
15 | Ac-RRLLLAPLALPALLLRRL-NH2 [Peptide 4, Ac-RRLLLAPLALPALLLRRL-NH2] | 0* | 0* | 0* | 2.38* | 0* | 
16 | Ac-RRLLPAALALAAPLLRRL-NH2 [Peptide 2, Ac-RRLLPAALALAAPLLRRL-NH2] | 0* | 0* | 0* | 4.52* | 0* | 
17 | Ac-RRLLPAHLALHAPLLRRL-NH2 [Peptide 14, Ac-RRLLPAHLALHAPLLRRL-NH2] | 0* | 0* | 0* | 1.5* | 0* | 
18 | Ac-RRLLPALLALLAPLLRRL-NH2 [Peptide 3, Ac-RRLLPALLALLAPLLRRL-NH2] | 0* | 0* | 0* | 3.37* | 0* | 
19 | Ac-RRLLPAPLALPAPLLRRL-NH2 [Peptide 1, Ac-RRLLPAPLALPAPLLRRL-NH2] | 0* | 0.87* | 0* | 2.39* | 0* | 
20 | H-K(Ac)RRLLHAHLALHAHLLRRLK(Ac)-NH2 [Peptide 16′, K(Ac)RRLLHAHLALHAHLLRRLK(Ac)-NH2] | 0* | 2.3* | 0* | 2.9* | 0* | apparent solubility in water, 28 mM L-Histidine and 0.9% NaCl with the formation of larger particles or insoluble aggregates in 28 mM L-Histidine/NaCl or PBS
